Assay results from US8148373B2, “Compounds” (AstraZeneca AB, priority 2008, dated 2012).

Tests used:
[1] = target: T1, Adrenergic β2 (H292 cells) (Homo sapiens, UniProt P07550); assay: Assay for Adrenergic β2 Mediated cAMP Production (concentration response, AlphaScreen cAMP detection); format: cell-based; details: for EC50: cAMP production, 60 minutes at room temperature, 300 μM rolipram, read-out: β2 pEC50 (converted); for β2 Intrinsic activity: fraction relative to the maximum activity determined for formoterol
T1 construct: endogenous in cells; host or cells: H292 cells
Summary of the method: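 Intrinsic activity is relative to the per-experiment formoterol maximum, with pEC50 from a four-parameter logistic fit of cAMP levels quantified by AlphaScreen against standards. Cells (H292) got 300 μM rolipram for 10 min, then compound for 60 min at room temperature, 1% DMSO final.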

[2] = target: T2, human muscarinic acetylcholine M3 receptor (M3-ACh) (Homo sapiens, UniProt P20309); assay: Muscarinic 3 Receptor Binding Assay ([3H]NMS competition, SPA); details: [3H]NMS 0.1 nM, CHO-K1 cell membranes, 16 hours at room temperature; read-out: M3 pIC50 (converted)
T2 construct: expressed in transfected cells; host or cells: CHO-K1 (Chinese Hamster Ovary) cell membranes
Summary of the method: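 Competition SPA binding of 0.1 nM [3H]NMS (quarter Kd) to membranes from CHO-K1 cells expressing human M3, in 20 mM HEPES pH 7.4, 5 mM MgCl2, 1% DMSO. Incubated 16 h at room temperature; non-specific binding with 1 µM atropine. pIC50 from 50% reduction of specific binding.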

T2 sequence (P20309 whole entry): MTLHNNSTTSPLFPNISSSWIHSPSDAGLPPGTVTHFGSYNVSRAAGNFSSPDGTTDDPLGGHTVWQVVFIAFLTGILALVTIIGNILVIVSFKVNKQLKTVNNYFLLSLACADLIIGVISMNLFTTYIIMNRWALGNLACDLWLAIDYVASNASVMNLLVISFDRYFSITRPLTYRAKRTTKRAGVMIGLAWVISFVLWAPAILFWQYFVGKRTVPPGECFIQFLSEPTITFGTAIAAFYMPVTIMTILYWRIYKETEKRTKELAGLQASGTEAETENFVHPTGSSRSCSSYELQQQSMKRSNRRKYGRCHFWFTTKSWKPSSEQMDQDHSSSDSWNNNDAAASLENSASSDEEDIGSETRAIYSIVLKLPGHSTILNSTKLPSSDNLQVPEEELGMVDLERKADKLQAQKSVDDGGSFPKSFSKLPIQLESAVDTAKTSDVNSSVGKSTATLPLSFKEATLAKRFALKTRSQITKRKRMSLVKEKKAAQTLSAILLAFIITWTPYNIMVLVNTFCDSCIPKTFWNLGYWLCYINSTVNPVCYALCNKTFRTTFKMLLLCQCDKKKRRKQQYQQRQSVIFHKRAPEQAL
T1 sequence (P07550 whole entry): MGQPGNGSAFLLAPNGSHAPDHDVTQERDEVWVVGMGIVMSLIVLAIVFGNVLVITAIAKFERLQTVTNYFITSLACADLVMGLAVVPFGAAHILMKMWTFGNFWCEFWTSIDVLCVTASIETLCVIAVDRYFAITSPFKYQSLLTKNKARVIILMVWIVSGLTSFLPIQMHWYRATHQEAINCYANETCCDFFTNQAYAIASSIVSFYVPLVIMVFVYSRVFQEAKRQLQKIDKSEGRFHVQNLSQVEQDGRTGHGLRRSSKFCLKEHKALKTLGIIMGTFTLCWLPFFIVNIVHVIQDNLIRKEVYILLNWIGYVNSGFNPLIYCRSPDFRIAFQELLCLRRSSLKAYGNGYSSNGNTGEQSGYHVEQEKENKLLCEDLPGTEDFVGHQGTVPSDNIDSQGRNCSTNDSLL

SMILES	EC50 [1] [nM]	β2 Intrinsic activity [1]	IC50 [2] [nM]
CC(C)(C)c1nc(C(=O)N2CCOC3(CCN(Cc4cc(CCNC[C@H](O)c5ccc(O)c6[nH]c(=O)sc56)cs4)CC3)C2)cs1 [Example 43, (R)-7-(2-(2-(5-((4-(2-tert-Butylthiazole-4-carbonyl)-1-oxa-4,9-diazaspiro[5.5]undecan-9-yl)methyl)thiophen-3-yl)ethylamino)-1-hydroxyethyl)-4-hydroxybenzo[d]thiazol-2(3H)-one ditrifluoroacetate]	5.01	0.8	39.8
CC(C)c1nc(C(=O)N2CC(F)(F)OC3(CCN(Cc4cccc(CCNC[C@H](O)c5ccc(O)c6[nH]c(=O)ccc56)c4)CC3)C2)cs1 [Example 44, (R)-5-(2-(3-((2,2-Difluoro-4-(2-isopropylthiazole-4-carbonyl)-1-oxa-4,9-diazaspiro[5.5]undecan-9-yl)methyl)phenethylamino)-1-hydroxyethyl)-8-hydroxyquinolin-2(1H)-one ditrifluoroacetate]	2.51	1	3.16
CC(C)c1nc(C(=O)N2CCOC3(CCN(Cc4ccc(F)c(CCNC[C@H](O)c5ccc(O)c6[nH]c(=O)sc56)c4F)CC3)C2)cs1 [Example 45, (R)-7-(2-(2,6-Difluoro-3-((4-(2-isopropylthiazole-4-carbonyl)-1-oxa-4,9-diazaspiro[5.5]undecan-9-yl)methyl)phenethylamino)-1-hydroxyethyl)-4-hydroxybenzo[d]thiazol-2(3H)-one ditrifluoroacetate]	10	0.8	5.01
CC(C)c1nc(C(=O)N2CCOC3(CCN(Cc4ccc(F)c(CCNC[C@H](O)c5ccc(O)c6[nH]c(=O)ccc56)c4F)CC3)C2)cs1 [Example 46, (R)-5-(2-(2,6-Difluoro-3-((4-(2-isopropylthiazole-4-carbonyl)-1-oxa-4,9-diazaspiro[5.5]undecan-9-yl)methyl)phenethylamino)-1-hydroxyethyl)-8-hydroxyquinolin-2(1H)-one ditrifluoroacetate]	79.4	1	6.31
CC(C)c1nc(C(=O)N2CCOC3(CCN(Cc4ccc(F)c(CCNC[C@H](O)c5ccc(O)c6[nH]c(=O)sc56)c4)CC3)C2)cs1 [Example 47, (R)-7-(2-(2-Fluoro-5-((4-(2-isopropylthiazole-4-carbonyl)-1-oxa-4,9-diazaspiro[5.5]undecan-9-yl)methyl)phenethylamino)-1-hydroxyethyl)-4-hydroxybenzo[d]thiazol-2(3H)-one ditrifluoroacetate]	15.8	0.9	0.501
CC(C)c1nc(C(=O)N2CCOC3(CCN(Cc4cccc(CCNC[C@H](O)c5ccc(O)c6[nH]c(=O)sc56)c4F)CC3)C2)cs1 [Example 48, (R)-7-(2-(2-Fluoro-3-((4-(2-isopropylthiazole-4-carbonyl)-1-oxa-4,9-diazaspiro[5.5]undecan-9-yl)methyl)phenethylamino)-1-hydroxyethyl)-4-hydroxybenzo[d]thiazol-2(3H)-one ditrifluoroacetate]	5.01	0.9	0.794
Cc1nc2cc(C(=O)N3CCOC4(CCN(Cc5cc(CCNC[C@H](O)c6ccc(O)c7[nH]c(=O)sc67)cs5)CC4)C3)ccc2s1 [Example 49, (R)-4-Hydroxy-7-(1-hydroxy-2-(2-(5-((4-(2-methylbenzo[d]thiazole-5-carbonyl)-1-oxa-4,9-diazaspiro[5.5]undecan-9-yl)methyl)thiophen-3-yl)ethylamino)ethyl)benzo[d]thiazol-2(3H)-one ditrifluoroacetate]	7.94	0.9	39.8
CC(C)(C)c1nc(C(=O)N2CCOC3(CCN(Cc4cc(F)cc(CCNC[C@H](O)c5ccc(O)c6[nH]c(=O)sc56)c4)CC3)C2)cs1 [Example 50, (R)-7-(2-(3-((4-(2-tert-Butylthiazole-4-carbonyl)-1-oxa-4,9-diazaspiro[5.5]undecan-9-yl)methyl)-5-fluorophenethylamino)-1-hydroxyethyl)-4-hydroxybenzo[d]thiazol-2(3H)-one ditrifluoroacetate]	7.94	0.9	39.8
CC(C)c1nc(C(=O)N2CC(F)(F)OC3(CCN(Cc4cc(CCNC[C@H](O)c5ccc(O)c6[nH]c(=O)ccc56)cs4)CC3)C2)cs1 [Example 51, (R)-5-(2-(2-(5-((2,2-Difluoro-4-(2-isopropylthiazole-4-carbonyl)-1-oxa-4,9-diazaspiro[5.5]undecan-9-yl)methyl)thiophen-3-yl)ethylamino)-1-hydroxyethyl)-8-hydroxyquinolin-2(1H)-one ditrifluoroacetate]	3.16	0.9	15.8

Second part, the compound after the results:

EC50 [1] [nM]	β2 Intrinsic activity [1]	IC50 [2] [nM]	SMILES
5.01	0.9	7.94	CC(C)c1nc(C(=O)N2CCOC3(CCN(Cc4cc(Cl)cc(CCNC[C@H](O)c5ccc(O)c6[nH]c(=O)sc56)c4)CC3)C2)cs1 [Example 52, (R)-7-(2-(3-Chloro-5-((4-(2-isopropylthiazole-4-carbonyl)-1-oxa-4,9-diazaspiro[5.5]undecan-9-yl)methyl)phenethylamino)-1-hydroxyethyl)-4-hydroxybenzo[d]thiazol-2(3H)-one ditrifluoroacetate]
10	1	12.6	CC(C)c1csc(C(=O)N2CCOC3(CCN(Cc4cc(F)cc(CCNC[C@H](O)c5ccc(O)c6[nH]c(=O)sc56)c4)CC3)C2)n1 [Example 53, (R)-7-(2-(3-Fluoro-5-((4-(4-isopropylthiazole-2-carbonyl)-1-oxa-4,9-diazaspiro[5.5]undecan-9-yl)methyl)phenethylamino)-1-hydroxyethyl)-4-hydroxybenzo[d]thiazol-2(3H)-one ditrifluoroacetate]
6.31	0.9	200	CC(C)c1cnc(C(=O)N2CCOC3(CCN(Cc4cc(F)cc(CCNC[C@H](O)c5ccc(O)c6[nH]c(=O)sc56)c4)CC3)C2)s1 [Example 54, (R)-7-(2-(3-Fluoro-5-((4-(5-isopropylthiazole-2-carbonyl)-1-oxa-4,9-diazaspiro[5.5]undecan-9-yl)methyl)phenethylamino)-1-hydroxyethyl)-4-hydroxybenzo[d]thiazol-2(3H)-one ditrifluoroacetate]
6.31	1	63.1	CC(C)c1ncc(C(=O)N2CCOC3(CCN(Cc4cc(F)cc(CCNC[C@H](O)c5ccc(O)c6[nH]c(=O)sc56)c4)CC3)C2)s1 [Example 55, (R)-7-(2-(3-Fluoro-5-((4-(2-isopropylthiazole-5-carbonyl)-1-oxa-4,9-diazaspiro[5.5]undecan-9-yl)methyl)phenethylamino)-1-hydroxyethyl)-4-hydroxybenzo[d]thiazol-2(3H)-one ditrifluoroacetate]
7.94	1	2.51	CCCc1nc(C(=O)N2CCOC3(CCN(Cc4cc(F)cc(CCNC[C@H](O)c5ccc(O)c6[nH]c(=O)sc56)c4)CC3)C2)cs1 [Example 56, (R)-7-(2-(3-Fluoro-5-((4-(2-propylthiazole-4-carbonyl)-1-oxa-4,9-diazaspiro[5.5]undecan-9-yl)methyl)phenethylamino)-1-hydroxyethyl)-4-hydroxybenzo[d]thiazol-2(3H)-one ditrifluoroacetate]
6.31	1.1	0.794	O=C(c1csc(C2CC2)n1)N1CCOC2(CCN(Cc3cc(F)cc(CCNC[C@H](O)c4ccc(O)c5[nH]c(=O)sc45)c3)CC2)C1 [Example 57, (R)-7-(2-(3-((4-(2-Cyclopropylthiazole-4-carbonyl)-1-oxa-4,9-diazaspiro[5.5]undecan-9-yl)methyl)-5-fluorophenethylamino)-1-hydroxyethyl)-4-hydroxybenzo[d]thiazol-2(3H)-one ditrifluoroacetate]
10	0.9	6.31	O=C(c1csc(C2CCC2)n1)N1CCOC2(CCN(Cc3cc(F)cc(CCNC[C@H](O)c4ccc(O)c5[nH]c(=O)sc45)c3)CC2)C1 [Example 58, (R)-7-(2-(3-((4-(2-Cyclobutylthiazole-4-carbonyl)-1-oxa-4,9-diazaspiro[5.5]undecan-9-yl)methyl)-5-fluorophenethylamino)-1-hydroxyethyl)-4-hydroxybenzo[d]thiazol-2(3H)-one ditrifluoroacetate]
15.8	1	7.94	O=C(c1csc(C2CCCC2)n1)N1CCOC2(CCN(Cc3cc(F)cc(CCNC[C@H](O)c4ccc(O)c5[nH]c(=O)sc45)c3)CC2)C1 [Example 59, (R)-7-(2-(3-((4-(2-Cyclopentylthiazole-4-carbonyl)-1-oxa-4,9-diazaspiro[5.5]undecan-9-yl)methyl)-5-fluorophenethylamino)-1-hydroxyethyl)-4-hydroxybenzo[d]thiazol-2(3H)-one ditrifluoroacetate]
5.01	1	3.98	Cc1csc(C(=O)N2CCOC3(CCN(Cc4cc(F)cc(CCNC[C@H](O)c5ccc(O)c6[nH]c(=O)sc56)c4)CC3)C2)c1 [Example 60, (R)-7-(2-(3-Fluoro-5-((4-(4-methylthiophene-2-carbonyl)-1-oxa-4,9-diazaspiro[5.5]undecan-9-yl)methyl)phenethylamino)-1-hydroxyethyl)-4-hydroxybenzo[d]thiazol-2(3H)-one ditrifluoroacetate]
